From US7351399B2, “Prodrugs for phosphorus-containing compounds” (Metabasis Therapeutics, Inc., priority 1998, dated 2008)
Entries after “also recorded” stand apart in the source; their conditions may differ. Each block holds one compound with its values, some of them ahead of it.

What was measured:
[1] = Chemical stability in isotonic saline and phosphate buffer (Example A); assay type: physicochemical; conditions: 100 μM; phosphate buffer pH 7.4; 1 hour; room temperature
Procedure: Methods: Aliquots of a 10 μg/mL solution of 30.1 in isotonic saline and in 100 mM potassium phosphate buffers at pH 3, 7, and 9 were sampled after 1, 2, 5, and 7 days of incubation at room temperature and analyzed by HPLC. A Beckman Ultrasphere C8 column (4.6×150 mm) was employed and eluted with a gradient from 0.1% v/v trifluoroacetic acid to 80% methanol at a flow rate of 1.0 mL/min. Detection was at 254 nm. Using these conditions, the four isomers of 30.1 were readily separated and quantified. 1.3 was incubated at 100 μM in phosphate buffer at pH 7.4 and analyzed by HPLC as described in Example I following 1 hour of incubation at room temperature.
Thus, prodrugs of the invention are stable under a broad pH range.

[2] = Stability in plasma (Example C); conditions: 37° C.; 5-8 hours; HPLC
Procedure: Methods: Compounds were incubated in plasma at 37° C., and aliqouts removed at appropriate time points over the course of 5-8 hours. The aliquots were extracted with 1.5 volumes of methanol and clarified by centrifugation. Supernatants were then evaporated to dryness and the residues reconstituted with 100 μL of isoionic saline and then analyzed by reverse phase HPLC.

[3] = Delivery of parent compound to liver after intraperitoneal 1.3 (Example U); assay type: in vivo, rat; conditions: 1.3 50 mg/kg i.p.
Procedure: Methods: 1.3 was dissolved in DMSO and administered intraperitoneally to fasted rats at a dose of 50 mg/kg. At various time points following drug administration, animals were anesthetized with halothane. The peritoneal cavity was then opened and a blood sample was obtained from the abdominal vena cava and the liver freeze-clamped and excised. Blood and liver samples were processed as described in Example P and analyzed for 6-Amino-9-neopentyl-8-(2-phosphonofuranyl)purine content as described in Example I.
Results: 6-Amino-9-neopentyl-8-(2-phosphonofuranyl)purine was detected both in plasma and liver following 1.3 administration. Peak levels measured at the earliest time point of 1 hour were 5.8 μM in plasma and 5 nmoles/g tissue in liver. 6-Amino-9-neopentyl-8-(2-phosphonofuranyl)purine persisted in plasma and liver for 4 hours (the last time point measured).

[4] = system: glucose production (gluconeogenesis) in isolated rat hepatocytes; assay: Inhibition of glucose production in rat hepatocytes (Example J); assay type: cell-based; conditions: lactate 10 mM / pyruvate 1 mM, 1 hour
Procedure: Select prodrugs of FBPase inhibitors were tested for inhibition of glucose production in isolated rat hepatocytes.
After a 10 minute equilibration period, lactate and pyruvate were added to 10 mM and 1 mM concentrations, respectively. Addition of gluconeogenic substrates was immediately followed by that of appropriate concentrations of test compound. After 1 hour, an aliquot (0.25 ml) was removed, transferred to an Eppendorf tube and centrifuged. The supernatant (50 μl) was then assayed for glucose content using a Glucose Oxidase kit (Sigma Chemical Co.) as per the manufacturer's instructions.
Results: The following table depicts the inhibitory effect on gluconeogenesis for several prodrugs prepared in the Examples.

[5] = Oral bioavailability by urinary excretion method (Example M); assay type: in vivo; conditions: oral gavage 20 or 40 mg/kg parent equivalents; 24 h urine vs i.v. parent ~10 mg/kg; rat
Procedure: The oral bioavailability of prodrugs of a variety of phosphonic acid FBPase inhibitors was estimated by a urinary excretion method in rat.
Prodrugs of FBPase inhibitors were dissolved in 10% ethanol/90% polyethylene glycol (mw 400) and administered by oral gavage at doses of 20 or 40 mg/kg parent compound equivalents to 6-hour fasted, Sprague Dawley rats (220-240 g). The rats were subsequently placed in metabolic cages and urine was collected for 24 hours. The quantity of parent compound excreted into urine was determined by HPLC analysis. An ODS column eluted with a gradient from potassium phosphate buffer, pH 5.5 to acetonitrile was employed for these measurements. Detection was at 310-325 nm. […] Parent compounds were typically dissolved in dimethyl sulfoxide, and administered via the tail vein in animals that were briefly anesthetized with halothane.
Results for the FBPase inhibitor prodrugs were as follows

isolated rat hepatocytes [6] = assay: Activation in isolated rat hepatocytes (Example I); conditions: 100 μM prodrug; fed rat hepatocytes
Procedure: Methods: Hepatocytes were prepared from fed Sprague-Dawley rats (250-300 g) according to the procedure of Berry and Friend (Berry, M. N., Friend, D. S. J. Cell Biol. 43, 506-520 (1969)) as modified by Groen (Groen, A. K. et al. Eur J. Biochem 122, 87-93 (1982)). Hepatocytes (75 mg wet weight/ml) were incubated in 1 ml Krebs-bicarbonate buffer containing 10 mM glucose, and 1 mg/ml BSA. […] Prodrugs were dissolved in DMSO to yield 10 mM stock solutions, and then diluted into the cell suspension to yield a final concentration of 100 μM. At appropriate time points over the course of one hour, aliquots of the cell suspension were removed and spun through a silicon/mineral oil layer into 10% perchloric acid. The cell extracts in the acid layers were neutralized, and the intracellular prodrug metabolite content analyzed by reverse phase HPLC. An ODS column was used for analysis. It was eluted with a gradient from 10 mM sodium phosphate, pH 5.5 to 75% acetonitrile. Detection was at 310 nm. Peaks on the chromatograms were identified by comparison to the retention times and spectra of standards of prodrug and parent compound.

[7] = Hepatic PMEA-diphosphate and plasma PMEA after intravenous administration (Example P); assay type: in vivo, rat; conditions: 10 mg/kg PMEA equivalents i.v.; fasted rats
Procedure: Methods. […] At appropriate time points, blood and liver samples were obtained and processed as described in Example O. PMEA-diphosphate in liver and PMEA in plasma were analyzed by HPLC as described for araATP and ara-hypoxanthine, respectively, in Example O.

[8] = Renal excretion of PMEA after intravenous administration (Example Q); conditions: i.v.; for Renal excretion of PMEA, of the administered dose: rats, 24 hour urine
Procedure: Rats were subsequently caged in metabolic cages and urine collected over a 24 hour period. Urine samples were extracted with 70% methanol/2% acetic acid, vortexed and clarified by centrifugation. Supernatants were analyzed for PMEA content by reverse phase HPLC. A Beckman Ultrasphere ODS (4.6×150 mm) column was used with a gradient from 20 mM potassium phosphate pH 6.2 to 50% acetonitrile.

[9] = system: human liver microsomes, p450 isozymes (CYP3A4, CYP1A2, CYP2C9); assay: Identification of the p450 isozyme involved in the activation, with isozyme inhibitors (Example F); conditions: 0-100 μM p450 isozyme inhibitor, 250 μM 30.1
[10] = in vivo; cited from earlier work
isolated rat hepatocytes [11] = assay: Generation of PMEApp in isolated rat hepatocytes (Example V); assay type: cell-based; conditions: Dose 250 μM; 4 h; triplicate
Procedure: Methods: Hepatocytes were prepared from fed rats and incubated as described in Example I. Test compounds were prepared in DMSO and-diluted to 250 μM in the cell suspensions. Reactions were performed in triplicate. After 4 hours of incubation, aliquots of the suspension were removed and processed as described in Example I. Quantitation of PMEApp was performed by anion exchange HPLC also as described in Example I.

stability in phosphate buffer [1]: fully stable | metabolism / degradation in fresh rat plasma [2]: no evidence of metabolism | peak level of parent 6-Amino-9-neopentyl-8-(2-phosphonofuranyl)purine in liver ([3]; fasted rats, 1 hour): 5 nmoles/g tissue | peak level of parent 6-Amino-9-neopentyl-8-(2-phosphonofuranyl)purine in plasma ([3]; fasted rats, 1 hour): 5.8 µM | persistence of parent compound in plasma and liver ([3]; last time point measured): 4 h
Compound: CC(C)(C)Cn1c(-c2ccc(P3(=O)OC4CC(O)CC(C4)O3)o2)nc2c(N)ncnc21 (single isomer, unassigned) [Compound 1.3, 6-Amino-8-(5′-hydroxyl-1′,3′ cyclohexyl)phosphonofuranyl-9-neopentyl purine]

Compound: Nc1ncnc2c1nc(-c1ccc(P3(=O)OC4CC(O)CC(C4)O3)o1)n2CCc1ccccc1 (centres unmarked) [Compound 1.1, 6-Amino-8-(5′-hydroxyl-1′,3′-cyclohexyl)phosphonofuranyl-9-phenethyl purine]
metabolism / degradation in fresh rat plasma [2]: not degraded; also recorded: no evidence of metabolism

metabolism / degradation in fresh rat plasma [2]: not degraded
Compound: CC(C)(C)Cn1c(-c2ccc(P3(=O)OC4CC(O)CC(C4)O3)o2)nc2c(N)ncnc21 (centres unmarked) [Compound 1.2, 6-Amino-8-(5′-hydroxyl-1′,3′-cyclohexyl)phosphonofuranyl-9-neopentyl purine]

Compound: Cc1c(Cl)cc2c(nc(-c3ccc(P4(=O)OC5CC(O)CC(C5)O4)o3)n2CC2CC2)c1C (centres unmarked) [Compound 1.4, 6-Chloro-4,5-dimethyl-1-cyclopropylmethyl-2-[1′-hydroxy-3′,5′-cyclohexylphosphono-5-furanyl]benzimidazole]
% inhibition @ 100 μM [4]: 36%

Compound: CC(=O)N[C@@H]1COP(=O)(c2ccc(-c3nc4ccc(Cl)cc4n3CC(C)C)o2)O[C@H]1c1ccc([N+](=O)[O-])cc1 (stereo partly drawn) [Compound 2.4, 6-Chloro-1-isobutyl-2-{5-[1S-(4-nitrophenyl)-2R-acetylamino-propan-1,3-yl]phosphono-2-furanyl}benzimidazole]
% inhibition @ 100 μM [4]: 40% | % OBAV Prodrug [5]: 8.7%

Compound: CC(C)Cn1c(-c2ccc(P3(=O)OCCC(c4ccccn4)O3)o2)nc2ccc(Cl)cc21 (centres unmarked) [Compound 4.2, 6-Chloro-1-isobutyl-2-{5-[1′-(2-pyridyl)-propan-1′,3′-yl]phosphono-2-furanyl}benzimidazole]
% inhibition @ 100 μM [4]: 68% | % OBAV Prodrug [5]: 8.5%

Compound: CC(C)Cn1c(-c2ccc(P3(=O)OCCC(c4ccncc4)O3)o2)nc2ccc(Cl)cc21 (centres unmarked) [Compound 4.3, 6-Chloro-1-isobutyl-2-{5-[1′-(4-pyridyl)-propan-1′,3′-yl]phosphono-2-furanyl}benzimidazole]
% inhibition @ 100 μM [4]: 55% | % OBAV Prodrug [5]: 11.6%

Compound: CC(C)Cn1c(-c2ccc(P3(=O)OCCC(c4ccc(F)cc4)O3)o2)nc2ccc(Cl)cc21 (centres unmarked) [Compound 5.2, 6-Chloro-1-isobutyl-2-{5-[1′-(4-fluorophenyl)-propan-1′,3′-yl]phosphono-2-furanyl}benzimidazole]
% OBAV Prodrug [5]: 2.4%

Compound: COc1ccc(C2CCOP(=O)(c3ccc(-c4nc5ccc(Cl)cc5n4CC(C)C)o3)O2)cc1Br (centres unmarked) [Compound 6.1, 6-Chloro-1-isobutyl-2-{5-[1′-(3-bromo-4-methoxyphenyl)-propan-1′,3′-yl]phosphono-2-furanyl}benzimidazole]
% inhibition @ 100 μM [4]: 11%

Compound: CC(=O)OCC1COP(=O)(c2ccc(-c3nc4ccc(Cl)cc4n3CC(C)C)o2)OC1 (centres unmarked) [Compound 7.2, 6-Chloro-1-isobutyl-2-{5-[2′-(acetoxymethyl)-propan-1′,3′-yl]phosphono-2-furanyl}benzimidazole]
IC50 [4]: 90 µM | % OBAV Prodrug [5]: 12.5% | peak intrahepatocyte levels of parent compound (isolated rat hepatocytes [6]): ~500 nmoles/g cells

Compound: COC(=O)OCC1COP(=O)(c2ccc(-c3nc4ccc(Cl)cc4n3CC(C)C)o2)OC1 (centres unmarked) [Compound 7.3, 6-Chloro-1-isobutyl-2-{5-[2′-(methoxycarbonytoxymethyl)-propan-1′,3′-yl]phosphono-2-furanyl}benzimidazole]
% inhibition @ 100 μM [4]: 61% | % OBAV Prodrug [5]: 14.1%

Compound: CCc1cc(F)c(N)c2nc(-c3ccc(P4(=O)OCC(COC(C)=O)CO4)o3)n(CC(C)C)c12 (centres unmarked) [Compound 7.4, 4-Amino-5-fluoro-7-ethyl-1-isobutyl-2-{5-[2′-(acetoxymethyl)-propan-1′,3′-yl]phosphono-2-furanyl}benzimidazole]
IC50 [4]: 25 µM

PMEA in the blood or urine [8]: no detectable PMEA
Compound: Nc1ncnc2c1ncn2CCOCP1(=O)OCCC(c2ccncc2)O1 (centres unmarked) [Compound 28.4, 9-[2-(1-(4-Pyridyl)-1,3-propylphosphonomethoxy)ethyl]adenine]
PMEA-diphosphate levels in liver [7]: readily detectable levels; also recorded: high PMEA disphosphate levels

Compound: CC(=O)N1CCN(c2ccc(OCC3COC(Cn4ccnc4)(c4ccc(Cl)cc4Cl)O3)cc2)CC1 (centres unmarked) [Ketoconazole]
inhibition of the formation of ara-AMP from 30.1 [9]: dose-dependent

Compound: Nc1ncnc2c1ncn2[C@@H]1O[C@H](CO)[C@@H](O)[C@@H]1O [araA, 9-b-D-arabinofuranosyladenine]
oral bioavailability [10]: low oral bioavailability

Compound: CC(C)(C)C(=O)OCOP(=O)(COCCn1cnc2c(N)ncnc21)OCOC(=O)C(C)(C)C [bisPOM-PMEA, reference compound]
PMEApp (isolated rat hepatocytes [11]): 200 ± 33 nmol/g | PMEA-diphosphate levels in liver [7]: readily detectable levels | Renal excretion of PMEA, of the administered dose [8]: 54% | Renal excretion of PMEA, of the administered dose ([8]; listed as bis POM prodrug of PMEA): high levels of PMEA in the urine

Compound: Cc1nc2c([nH]1)c(=O)n(C)c(=O)n2Cc1ccco1 [furafylline]
inhibition of the formation of ara-AMP from 30.1 [9]: no significant inhibition

Compound: Nc1ccc(S(=O)(=O)Nc2ccnn2-c2ccccc2)cc1 [sulfaphenazole]
inhibition of the formation of ara-AMP from 30.1 [9]: no significant inhibition
